For one compound, IC50 and Activity results are on record in ChEMBL document CHEMBL1159250, “A novel phorbol ester from Excoecaria agallocha” (J Nat Prod, 1995).

Series [1] concerns the target Protein kinase C (PKC). Description: Displacement of [3H]PDBu from rat brain membrane PKC. Format: tissue-based.
Series [2] has as its system H9. Description: Cytotoxicity in human H9 cells upto 2 uM. Format: cell-based.
For series [3], the system named is Human immunodeficiency virus 1. Description: Inhibition of HIV1 replication in human H9 cells assessed as inhibition of supernatant reverse transcriptase and p24 level. Format: functional, organism-based. Particulars: Human immunodeficiency virus 1, H9.

As a reminder, the IC50 is the midpoint of a concentration-inhibition curve. As to `CCCC/C=C/C=C/CC(=O)O[C@@]12C[C@H](C)[C@@]3(O)[C@@H](C=C(CO)C[C@]4(O)C(=O)C(C)=C[C@@H]34)[C@@H]1C2(C)C`, the IC50 in series [1] was found to be 17 nM; in series [3], 6 nM. The Activity entry in series [2] is recorded as “Non-toxic”.
